{"source": "paper PMC5290737", "about": "“Surface mediated cooperative interactions of drugs enhance mechanical forces for antibiotic action” (Scientific Reports, 2017)", "key": {"[1]": {"target": "vancomycin-susceptible receptor (VSR)", "assay": "Cantilever surface stress assay, antibiotic binding to surface-bound VSR", "description": "(§1) To probe different pathways of signal-transduction central to the efficacy of recognition mechanisms and therapeutic agents, we used cantilever force-based technology. Because of its nanometre strain sensitivity, this technology can directly measure the smallest changes in mechanical strain caused by specific antibiotic binding. The principles of force transduction and measurements are well established[18][19][20] and many studies focused on cantilever sensors have been published. Unlike conventional methods such as 1H–NMR spectroscopy, enzyme-linked immunosorbent assays (ELISA)[29] or surface plasmon resonance (SPR)[30] which measure optical signatures of chemical binding, cantilever technology has the capacity to resolve forces at the level of individual hydrogen bonds, making it uniquely suited to provide important insight into force transduction mechanisms, such as cell wall strain in response to antibiotic binding. Moreover, in contrast to direct current or low-frequency signals, which cannot probe beyond electrical double layers formed by screening salts, mechanical signaling is sensitive to ligands even when they are located at distance of ~1 nm or more from the sensor surface (Fig. 1d). Measurements were performed using cantilevers functionalized with self-assembled monolayers (SAM) of VSR, VRR or reference polyethylene glycol (PEG) (see methods & materials, Supplementary Information). The specificity of mechanical signaling was achieved by performing measurements in differential mode, where the bending response of the reference PEG-coated cantilevers, (known to reduce nonspecific drug adsorption[8][14][34]) was subtracted from VSR- and VRR-coated cantilever signals (see cantilever measurement procedure, method section).\n(§2) Thus far, we have discussed the impact of near-membrane layer on the association kinetics, mechanical force transduction, specificity of molecular recognition and microbial susceptibility. To gain mechanistic insight (Fig. 7a,b), we averaged measurements for each drug-target interaction over four separate chips and the results are summarized in Fig. 7c,d. […] The mechanical signaling response follows an s-shaped curve undergoing its steepest rise at N ~1/Ksurf before reaching a plateau when the binding sites are fully occupied (Fig. 7c,d). To calculate Ksurf, we used equation (2)[14], based on the conventional Hill adsorption model.\n(§3) Here, Ksurf is raised to the power n to ensure that it maintains the dimension of concentration as n varies. Setting n = 1 yields the Langmuir isotherm where the reactions occur independently, while n > 1 corresponds to positive co-operative polyvalent interactions and n < 1 is a measure of negative co-operativity. In Fig. 7c,d, we find that the mechanical response at VSR levels off at 50 μM concentration for all antibiotics. In contrast, for the drug-resistant VRR a concentration of more than 1000 μM of Van, Rist or CE was required to reach indistinguishable maximum signals. The outcome of the fit using three parameters (n, Ksurf and σmax) is summarized in Supplementary Fig. 2. The calculated Ksurf for Ori binding to VSR is 40 ± 10 nM, which is 25 times stronger than for Van where Ksurf is 1.0 ± 0.3 μM. The Ksurf of Ori against VRR is 70 ± 10 nM, an astonishing 11,000 times stronger than for Van where Ksurf is 800 ± 300 μM. As a further measurement control and to confirm the accuracy of surface binding affinity, we used a commercially available SPR method (Fig. 7e,f and Supplementary SPR sensor chip functionalization procedure), where the detection of ligands is at a single planar metal surface.\n(§4) The modified cantilever chip was mounted in a sealed liquid cell. The alignment of each light source onto the free end of each cantilever was confirmed by heating liquid chamber to 1 °C rise. […]"}, "[2]": {"tested_on": "vancomycin-resistant receptor (VRR)", "assay": "Cantilever surface stress assay, antibiotic binding to surface-bound VRR", "description": "as §1, §2, §3, §4"}, "[3]": {"tested_on": "methicillin-susceptible Staphylococcus aureus (MSSA) ATCC 29213", "assay": "MIC by broth microdilution (CLSI M07-A8), with PS80", "assay_type": "cell-based", "conditions": "MSSA ATCC 29213, with PS80", "experimental": "Determination of MIC values to methicillin-susceptible Staphylococcus aureus (MSSA).\nMinimum Inhibitory Concentration (MIC) is defined as the lowest concentration of antibacterial agent required to inhibit growth of a microorganism after incubation. The antibiotics vancomycin (Van) and ristomycin (Rist) were obtained from Sigma-Aldrich while chloroeremomycin (CE) and oritavancin (Ori) were obtained from the Medicine Company Inc., U.S.A. To prepare antibiotic stock solutions for MICs assay, 5 mg/ml of each drug was dissolved in water containing an appropriate volume of 0.002% polysorbate-80 or PS80 obtained from Sigma-Aldrich which corresponds to 20 µM to eliminate nonspecific interactions of drugs to surfaces particularly for Ori which is known to bind to glass and plastics13. Microbiological broth with PS80 maintained at 20 µM was used in the drug dilution steps until the required final (assay) concentration. Diluted concentrations of each drug were assayed by adding an inoculum of methicillin-susceptible Staphylococcus aureus (MSSA) ATCC 29213 cells and the MIC determined by broth microdilution according to Clinical Laboratory Standards Institute (CLSI) methodology M07-A8 (CLSI 2009a)14. The results as shown in Supplementary Table S2 for each antibiotic against clinical isolate of MSSA ATCC 29213 strains conducted in the presence of […]\nPS80 are within the quality control ranges defined in the guideline15. […]"}, "[4]": {"target": "vancomycin-susceptible receptor (VSR)", "conditions": "ref. 4 (Rist), ref. 3 (CE), supplementary references, read-out: Ksurf SPR; cited from earlier work"}, "[5]": {"target": "vancomycin-resistant receptor (VRR)", "conditions": "ref. 3 (Van), ref. 5 (Rist), ref. 4 (CE), supplementary references, read-out: Ksurf SPR; cited from earlier work"}, "VSR (Ac-VSR) in solution": {"target": "VSR (Ac-VSR) in solution", "conditions": "VSR in solution; ref. 1 (Van, Rist), ref. 7 (CE), ref. 2 (Ori), supplementary references; read-out: Ksurf Solution; cited from earlier work"}, "VRR in solution": {"target": "VRR in solution", "conditions": "ref. 1 (Van), ref. 6 (Rist), ref. 8 (CE), ref. 2 (Ori), supplementary references, read-out: Ksurf Solution; cited from earlier work"}, "[6]": {"conditions": "ligand-ligand dissociation constant in solution; ref. 2 (Van, CE, Ori), ref. 5 (Rist), supplementary references; read-out: K1 Solution (complex aggregation constant); cited from earlier work"}, "[7]": {"tested_on": "vancomycin resistant E. faecalis (VRE)", "conditions": "absence of polysorbate-80; ref. 2 (Van), ref. 5 (Rist, CE), ref. 9 (Ori), supplementary references; cited from earlier work"}, "[8]": {"tested_on": "vancomycin susceptible E. faecalis (VSE)", "conditions": "absence of polysorbate-80; ref. 9 (Van, CE, Ori), ref. 10 (Rist), supplementary references; cited from earlier work"}}, "note": "Like-named read-outs stand apart in the source and are kept apart here.", "data": [{"substance": "ristomycin", "values": [{"measurement": "Kd", "setting": "[1]; VSR on cantilever, fit of equation (2), pH 7.4 sodium phosphate buffer, read-out: Ksurf Cantilever (surface equilibrium dissociation constant)", "result": "0.9 ± 0.5", "unit": "µM"}, {"measurement": "maximum stress data, Mean", "setting": "[1]; VSR, 4 chips, one-way ANOVA table S5", "result": 34.5}, {"measurement": "Mean difference of stress, VSR versus VRR", "setting": "[1]; independent samples t-test, 4 chips, table S6", "result": 27.0}, {"measurement": "compressive surface stress", "setting": "[2]; 10 μM antibiotic against VRR", "result": "~ 2 mNm^−1"}, {"measurement": "concentration required to reach indistinguishable maximum signals", "setting": "[2]; VRR", "result": "more than 1000 μM"}, {"measurement": "Kd", "setting": "[2]; VRR on cantilever, fit of equation (2), pH 7.4 sodium phosphate buffer, read-out: Ksurf Cantilever (surface equilibrium dissociation constant)", "result": "32 ± 17", "unit": "µM"}, {"measurement": "maximum stress data, Mean", "setting": "[2]; VRR, 4 chips, one-way ANOVA table S4", "result": 7.5}, {"measurement": "MIC", "setting": "[3]", "result": 8.0, "unit": "µg/mL"}, {"measurement": "MIC", "setting": "[3]; converted from mg/l", "result": 3.69, "unit": "µM"}, {"measurement": "Kd", "setting": "[4]", "result": 0.2, "unit": "µM"}, {"measurement": "Kd", "setting": "[5]", "result": 6.7, "unit": "µM"}, {"measurement": "Kd", "setting": "VSR (Ac-VSR) in solution", "result": 1.7, "unit": "µM"}, {"measurement": "Kd", "setting": "VRR in solution", "result": 3850, "unit": "µM"}, {"measurement": "Kd", "setting": "[6]", "result": 3000, "unit": "µM"}, {"measurement": "MIC VRE", "setting": "[7]", "result": 512, "unit": "µg/mL"}, {"measurement": "MIC VSE", "setting": "[8]", "result": 12.5, "unit": "µg/mL"}]}]}
